What was measured:
Assay type in all cases: in vivo
[1] = tested on: Leptochloa chinensis; assay: Test Example 3: herbicidal effect by foliage application, Wagner pot (symbol D); details: application herbicide amount 320 g/ha
Method in brief: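 Steps: fill pot with alluvial soil; add water to 0.1–0.5 cm depth; sow weed and rice seed; grow 14 days at 25–30 °C; spray diluted emulsion over the leaves; rate effect after 3 weeks.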

[2] = tested on: beet; assay: Test Example 4: effect on crop by soil treatment (symbol f)
Method in brief: (§1)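 Crop seeds, among them rice, wheat, beet and rapeseed, were sown in sterilized diluvial soil and covered with about 1.5 cm of soil. Boxes were kept in a greenhouse at 25° C. to 30° C. for plant growth.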

[3] = tested on: Galium spurium; assay: Test Example 5: herbicidal effect by foliage application, plastic box (symbol Q); details: 320 g/ha, 3 weeks after application
Method in brief: (§2)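 Visual herbicidal score, taken three weeks post-application, of seedlings sprayed on the foliage with water-diluted emulsion at a predetermined amount; plants were 14 days old, greenhouse-raised at 25° C. to 30° C.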

[4] = tested on: Digitaria ciliaris; assay: Test Example 5: herbicidal effect by foliage application, plastic box (symbol F); details: 320 g/ha, 3 weeks after application
Method in brief: as §2

[5] = tested on: rice; assay: Test Example 4: effect on crop by soil treatment (symbol b)
Method in brief: as §1

[6] = tested on: soybean; assay: Test Example 4: effect on crop by soil treatment (symbol d)
Method in brief: as §1

[7] = tested on: Apera spica-venti; assay: Test Example 5: herbicidal effect by foliage application, plastic box (symbol L); details: 320 g/ha, 3 weeks after application
Method in brief: as §2

[8] = tested on: Veronica persica; assay: Test Example 5: herbicidal effect by foliage application, plastic box (symbol R); details: 320 g/ha, 3 weeks after application
Method in brief: as §2

[9] = tested on: rapeseed; assay: Test Example 5: effect on crop by foliage application, plastic box (symbol g); details: 320 g/ha, 3 weeks after application
Method in brief: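 In a plastic box 7 cm deep filled with sterilized diluvial soil, seeds of crops and weeds such as Digitaria ciliaris, Avena fatua and Amaranthus retroflexus are sown in spots and covered with about 1.5 cm of soil before greenhouse growth at 25–30° C.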

[10] = tested on: Scirpus juncoides; assay: Test Example 1: herbicidal activity, application before weed generation in submerged conditions (symbol B); details: application herbicide amount 320 g/ha
Method in brief: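 Weeds are sown into submerged alluvial soil alongside transplanted 2.5-leaf rice, and the compound, as an emulsion diluted to a set rate, is applied onto the water before emergence. Rating on the 0–5 herbicidal-ratio scale follows 3 weeks of greenhouse growth at 25–30 °C.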

[11] = tested on: Echinochloa crus-galli var. crus-galli; assay: Test Example 5: herbicidal effect by foliage application, plastic box (symbol H); details: 320 g/ha, 3 weeks after application
Method in brief: as §2

[12] = tested on: directly sowed rice plant; assay: Test Example 3: effect on crop by foliage application, Wagner pot (symbol b); details: application herbicide amount 320 g/ha
Method in brief: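 Wagner pot (1/10000 are), alluvial soil, submerged 0.1–0.5 cm; sown E. crus-galli var. crus-galli, L. chinensis, C. difformis, rice; greenhouse 25–30 °C.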

[13] = tested on: Alopecurus myosuroides; assay: Test Example 4: herbicidal effect by soil treatment (symbol J)
Method in brief: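 Seeds were sown in sterilized diluvial soil, covered with about 1.5 cm of soil, and the soil surface was sprayed with a water-diluted emulsion of the compound at a predetermined rate. Plants grew in a greenhouse at 25° C. to 30° C.; effects were scored visually 3 weeks after application.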

[14] = tested on: Alopecurus myosuroides; assay: Test Example 5: herbicidal effect by foliage application, plastic box (symbol J); details: 320 g/ha, 3 weeks after application
Method in brief: as §2

[15] = tested on: Chenopodium album; assay: Test Example 5: herbicidal effect by foliage application, plastic box (symbol O); details: 320 g/ha, 3 weeks after application
Method in brief: as §2

[16] = application herbicide amount 320 g/ha

SMILES	herbicidal effect on D (Leptochloa chinensis), grade 0-5 [1]	f: beet, effect on crop grade [2, 16]	Q: Galium spurium, herbicidal effect grade [3]	F: Digitaria ciliaris, herbicidal effect grade [4]	b: directly sowed rice plant, effect on crop grade [5, 16]	d: soybean, effect on crop grade [6, 16]	L: Apera spica-venti, herbicidal effect grade [7]	R: Veronica persica, herbicidal effect grade [8]	g: rapeseed, effect on crop grade [9]	Herbicidal effect grade, B: Scirpus juncoides [10]	H: Echinochloa crus-galli var. crus-galli, herbicidal effect grade [11]	effect on crop b (directly sowed rice plant), grade 0-5 [12]	J: Alopecurus myosuroides, herbicidal effect grade [13, 16]	J: Alopecurus myosuroides, herbicidal effect grade [14]	O: Chenopodium album, herbicidal effect grade [15]	also measured
Cc1cc(C)c(C2=C(O)CC(CC(=O)C3CCCC3)C2=O)c(C)c1 (stereo not drawn) [2-028]	5 (Herbicidal ratio of 90% or more (almost completely withered))	0 (Herbicidal ratio of 5% or lower (almost no effect))	0 (Herbicidal ratio of 5% or lower (almost no effect))	2 (Herbicidal ratio of 20% or higher and lower than 40%)	5 (Herbicidal ratio of 90% or more (almost completely withered))	0 (Herbicidal ratio of 5% or lower (almost no effect))	1 (Herbicidal ratio of 5% or higher and lower than 20%)	0 (Herbicidal ratio of 5% or lower (almost no effect))	3 (Herbicidal ratio of 40% or higher and lower than 70%)	0 (Herbicidal ratio of 5% or lower (almost no effect))	5 (Herbicidal ratio of 90% or more (almost completely withered))	5 (Herbicidal ratio of 90% or more (almost completely withered))	3 (Herbicidal ratio of 40% or higher and lower than 70%)	4 (Herbicidal ratio of 70% or higher and lower than 90%)	0 (Herbicidal ratio of 5% or lower (almost no effect))	–
CON=C(C)CC1CC(OC(=O)c2ccccc2)=C(c2c(C)cc(C)cc2C)C1=O (stereo not drawn) [1-010]	5 (Herbicidal ratio of 90% or more (almost completely withered))	–	4 (Herbicidal ratio of 70% or higher and lower than 90%)	5 (Herbicidal ratio of 90% or more (almost completely withered))	–	–	5 (Herbicidal ratio of 90% or more (almost completely withered))	4 (Herbicidal ratio of 70% or higher and lower than 90%)	4 (Herbicidal ratio of 70% or higher and lower than 90%)	5 (Herbicidal ratio of 90% or more (almost completely withered))	5 (Herbicidal ratio of 90% or more (almost completely withered))	5 (Herbicidal ratio of 90% or more (almost completely withered))	–	5 (Herbicidal ratio of 90% or more (almost completely withered))	4 (Herbicidal ratio of 70% or higher and lower than 90%)	f (beet) effect on crop grade [2, 16]: 4 (Herbicidal ratio of 70% or higher and lower than 90%); b (directly sowed rice plant) effect on crop grade [5, 16]: 5 (Herbicidal ratio of 90% or more (almost completely withered)); d (soybean) effect on crop grade [6, 16]: 4 (Herbicidal ratio of 70% or higher and lower than 90%); J (Alopecurus myosuroides) herbicidal effect grade [13, 16]: 5 (Herbicidal ratio of 90% or more (almost completely withered))
CCOC(=O)C(C(=O)c1ccccn1)C1CC(O)=C(c2c(C)cc(C)cc2C)C1=O (stereo not drawn) [2-013]	0 (Herbicidal ratio of 5% or lower (almost no effect))	0 (Herbicidal ratio of 5% or lower (almost no effect))	1 (Herbicidal ratio of 5% or higher and lower than 20%)	4 (Herbicidal ratio of 70% or higher and lower than 90%)	5 (Herbicidal ratio of 90% or more (almost completely withered))	0 (Herbicidal ratio of 5% or lower (almost no effect))	4 (Herbicidal ratio of 70% or higher and lower than 90%)	2 (Herbicidal ratio of 20% or higher and lower than 40%)	4 (Herbicidal ratio of 70% or higher and lower than 90%)	0 (Herbicidal ratio of 5% or lower (almost no effect))	5 (Herbicidal ratio of 90% or more (almost completely withered))	0 (Herbicidal ratio of 5% or lower (almost no effect))	0 (Herbicidal ratio of 5% or lower (almost no effect))	5 (Herbicidal ratio of 90% or more (almost completely withered))	1 (Herbicidal ratio of 5% or higher and lower than 20%)	–
CON=C(C)CC1CC(OC(=O)N(C)c2ccccc2)=C(c2c(C)cc(C)cc2C)C1=O (stereo not drawn) [1-159]	5 (Herbicidal ratio of 90% or more (almost completely withered))	–	0 (Herbicidal ratio of 5% or lower (almost no effect))	5 (Herbicidal ratio of 90% or more (almost completely withered))	–	–	5 (Herbicidal ratio of 90% or more (almost completely withered))	0 (Herbicidal ratio of 5% or lower (almost no effect))	4 (Herbicidal ratio of 70% or higher and lower than 90%)	0 (Herbicidal ratio of 5% or lower (almost no effect))	4 (Herbicidal ratio of 70% or higher and lower than 90%)	5 (Herbicidal ratio of 90% or more (almost completely withered))	–	5 (Herbicidal ratio of 90% or more (almost completely withered))	0 (Herbicidal ratio of 5% or lower (almost no effect))	f: beet, effect grade on crop ([2]; 320 g/ha): 0 (Herbicidal ratio of 5% or lower (almost no effect)); b: directly sowed rice plant, effect grade on crop ([5]; 320 g/ha): 3 (Herbicidal ratio of 40% or higher and lower than 70%); d: soybean, effect grade on crop ([6]; 320 g/ha): 0 (Herbicidal ratio of 5% or lower (almost no effect)); J: Alopecurus myosuroides, herbicidal effect grade ([13]; 320 g/ha): 4 (Herbicidal ratio of 70% or higher and lower than 90%)
COC(=O)C(C(=O)C1CC1)C1CC(O)=C(c2c(C)cc(C)cc2C)C1=O (stereo not drawn) [2-014]	4 (Herbicidal ratio of 70% or higher and lower than 90%)	0 (Herbicidal ratio of 5% or lower (almost no effect))	0 (Herbicidal ratio of 5% or lower (almost no effect))	3 (Herbicidal ratio of 40% or higher and lower than 70%)	5 (Herbicidal ratio of 90% or more (almost completely withered))	0 (Herbicidal ratio of 5% or lower (almost no effect))	4 (Herbicidal ratio of 70% or higher and lower than 90%)	3 (Herbicidal ratio of 40% or higher and lower than 70%)	4 (Herbicidal ratio of 70% or higher and lower than 90%)	3 (Herbicidal ratio of 40% or higher and lower than 70%)	5 (Herbicidal ratio of 90% or more (almost completely withered))	5 (Herbicidal ratio of 90% or more (almost completely withered))	2 (Herbicidal ratio of 20% or higher and lower than 40%)	5 (Herbicidal ratio of 90% or more (almost completely withered))	0 (Herbicidal ratio of 5% or lower (almost no effect))	–
